Laboratory results from the NIST ThermoML archive (doi:10.1016/j.jct.2012.03.016).
Values joined by “and” are separate entries in the source; they are usually repeats but may differ in a detail not shown here. Equal values may be shown once.

What was measured:
[1] = Liquid, Closed cell (Static) method
[2] = excess molar enthalpy (molar enthalpy of mixing); xn = mol fraction of the nth substance listed; conditions: 303.15 K, 101.3 kPa, Liquid, Calvet calorimetry

COC(C)(C)C [2-methoxy-2-methylpropane]
[1]
Conditions | vapor or sublimation pressure [kPa]
263.15 K | 6.245
263.53 K | 6.4
273.15 K | 10.67
273.34 K | 10.8
283.15 K | 17.41
283.27 K | 17.6
293.15 K | 27.25
293.25 K | 27.4
303.15 K | 41.16
303.22 K | 41.2
313.15 K | 60.22
313.24 K | 60.3
323.15 K | 85.65
323.21 K | 85.8
333.15 K | 118.78
333.19 K | 119.2

CCCCOC [butyl methyl ether]
[1]
Conditions | vapor or sublimation pressure
262.99 K | 3.2 kPa
263.15 K | 3.194 kPa
273.04 K | 5.7 kPa
273.15 K | 5.704 kPa
283.07 K | 9.6 kPa
283.15 K | 9.688 kPa
293.1 K | 15.6 kPa
293.15 K | 15.74 kPa
303.12 K | 24.4 kPa
303.15 K | 24.61 kPa
313.15 K | 37.17 kPa
313.16 K | 36.8 kPa and 36.9 kPa
323.15 K | 54.46 kPa
323.2 K | 54 kPa
333.15 K | 77.64 kPa
333.25 K | 74.1 kPa

CCCCOC [butyl methyl ether] + C=CCCCC
[2]
Conditions | excess molar enthalpy [kcal/mol]
x2 = 0.0997 | 0.0055
x2 = 0.1966 | 0.011
x2 = 0.2897 | 0.0152
x2 = 0.3935 | 0.0193
x2 = 0.4933 | 0.0214
x2 = 0.5922 | 0.0217
x2 = 0.694 | 0.0205
x2 = 0.7912 | 0.0169
x2 = 0.8863 | 0.0105

C=CCCCC [hex-1-ene]
[1]
Conditions | vapor or sublimation pressure [kPa]
263.15 K | 4.46
263.45 K | 4.5
273.15 K | 7.716
273.32 K | 7.7
283.15 K | 12.71
283.24 K | 12.8
293.15 K | 20.08
293.22 K | 20.1
303.15 K | 30.54
303.22 K | 30.6
313.15 K | 44.96
313.2 K | 45
323.15 K | 64.28
323.19 K | 64.4
333.15 K | 89.55
333.23 K | 89.7

C=CCCCC [hex-1-ene] + COC(C)(C)C
[2]
Conditions | excess molar enthalpy [kcal/mol]
x1 = 0.1491 | 0.0209
x1 = 0.2162 | 0.0271
x1 = 0.3039 | 0.033
x1 = 0.4052 | 0.0369
x1 = 0.4892 | 0.0384
x1 = 0.6174 | 0.0379
x1 = 0.7128 | 0.0343
x1 = 0.788 | 0.0295
x1 = 0.8837 | 0.0198
